Data set [1] has as its system aryl hydrocarbon receptor (AhR). The arrangement: method as in PMID 33614386, PMID 18969555, PMID 18969548. The note with it: CALUX; relative to 2,3,7,8-TCDD; cited from earlier work.
Data set [2] has as its target T1, aryl hydrocarbon receptor (AhR) (Mus musculus, UniProt P30561). The data set can be described thus: CALUX luciferase reporter bioassay, H1L7.5c3 mouse hepatoma cells (20 DREs). Format: cell-based. The note with it: H1L7.5c3 mouse (20 DREs). From the text: (§1) A “3rd generation” H4L7.5c2 recombinant rat hepatoma CALUX cell line that contains a stably transfected AhR-responsive firefly luciferase reporter gene under control of 20 dioxin responsive elements (DREs) was utilized in this study. […] H4L7.5c2 rat and other CALUX cell lines, such as H4L1.1c4 rat and […] mouse hepatoma cells (each with 4 DREs), or “3rd generation” H1L7.5c3 mouse hepatoma cells (20 DREs), are freely available for non-profit research purposes and can be obtained from Prof. Denison. These cells are also available for commercial and government screening purposes through a licensing agreement with the Hiyoshi Corporation, Omihachiman, Japan (www.calux-jp.com/english/).
(§2) We compared both key indicators of assay performance, calibrator bias and imprecision, and the resulting working range for H4L7.5c2 rat hepatoma cells (this study) with those obtained using various other cell lines (4 DREs: H4L1.1c4 rat, DR-CALUX rat, H1L6.1c2 mouse hepatoma cells; 20 DREs: H1L7.5c3 mouse hepatoma cells) previously evaluated (Table 2). Commercially available DR-CALUX cells, a recombinant rat hepatoma (H4IIe)-based cell line (H4L1.1c10), were obtained from BioDetection Systems (The Netherlands). When using CALUX cell lines that contain 4 DREs, the lower limit of working range (LLOW), or the concentration above which results may be reported, is typically close to 1 pmol/L if both RLU-based and concentration-based criteria for bias and imprecision are fulfilled (assay working range B in Table 2). […] When utilizing H1L7.5c3 mouse hepatoma cells, which also contain 20 DREs, the LLOW equals 0.3 pmol/L, as well. However, the range in which assay concentrations match all criteria for bias and imprecision is smaller with an upper limit of working range (ULOW) of just 10 pmol/L. It follows that the “3rd generation” H4L7.5c2 rat hepatoma cells provide the most suitable working range of the assay for low sample concentrations, regardless of whether only the current EU RLU-based imprecision requirements are met or whether bias-related and concentration-based criteria are additionally observed (Table 2).
(§3) While absolute induction is driven by the efficiency of gene expression, fold induction is the ratio between the cell response (RLU) induced by a calibration standard, or by AhR-active dioxin-like compounds present in a sample extract, and the unspecific assay background response (RLU). […] Furthermore, the Chi-square-to-degrees of freedom ratio (χ^2/DF, with χ^2 ~ WSSR) known to be a stand-alone index characterizing the quality of a model fit is provided for each cell line. […] The latter is the case for each cell line (Table 3). […] An explanation can be found in the fact that triplicate standard deviations were used as rough estimates.
For orientation: Reporter assays use an easily measured gene product as a stand-in for the process of interest.

Data set [3] addresses T2, aryl hydrocarbon receptor (AhR) (Rattus norvegicus, UniProt P41738).
T2 construct: endogenous in cells; host or cells: H4L7.5c2, H4L1.1c4 and DR-CALUX (H4L1.1c10, H4IIe-based) recombinant rat hepatoma cells
T2 sequence (P41738 10-853): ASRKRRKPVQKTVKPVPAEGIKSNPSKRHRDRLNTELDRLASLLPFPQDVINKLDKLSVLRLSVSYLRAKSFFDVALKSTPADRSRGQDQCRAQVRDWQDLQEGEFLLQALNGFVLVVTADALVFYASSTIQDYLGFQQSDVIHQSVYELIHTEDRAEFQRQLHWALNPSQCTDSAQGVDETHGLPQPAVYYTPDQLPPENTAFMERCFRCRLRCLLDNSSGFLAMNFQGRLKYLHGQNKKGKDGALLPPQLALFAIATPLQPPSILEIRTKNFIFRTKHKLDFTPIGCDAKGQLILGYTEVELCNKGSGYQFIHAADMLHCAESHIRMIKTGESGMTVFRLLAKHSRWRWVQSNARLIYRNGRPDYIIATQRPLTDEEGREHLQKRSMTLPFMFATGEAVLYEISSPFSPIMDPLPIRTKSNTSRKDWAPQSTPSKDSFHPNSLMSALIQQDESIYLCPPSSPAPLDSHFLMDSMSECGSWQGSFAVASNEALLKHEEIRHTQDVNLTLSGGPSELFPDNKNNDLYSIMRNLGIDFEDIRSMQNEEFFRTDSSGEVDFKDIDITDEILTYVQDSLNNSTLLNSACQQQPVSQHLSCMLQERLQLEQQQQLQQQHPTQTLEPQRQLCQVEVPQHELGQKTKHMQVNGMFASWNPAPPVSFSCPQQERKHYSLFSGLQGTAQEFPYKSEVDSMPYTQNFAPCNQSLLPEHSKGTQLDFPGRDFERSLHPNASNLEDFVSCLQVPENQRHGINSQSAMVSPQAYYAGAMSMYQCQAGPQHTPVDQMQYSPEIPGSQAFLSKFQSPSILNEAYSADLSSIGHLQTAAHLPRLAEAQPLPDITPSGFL
As to the kind of experiment: CALUX luciferase reporter bioassay, H4L1.1c4 rat hepatoma cells (4 DREs). The note with it: H4L1.1c4 rat (4 DREs). The format is cell-based.
Excerpt: as §1, §2, §3

Details of data set [4]: method as in PMID 15083163. The note with it: adult humans; cited from earlier work.
The target in data set [5] is T2, aryl hydrocarbon receptor (AhR). As to the kind of experiment: CALUX luciferase reporter bioassay, H4L7.5c2 rat hepatoma cells (20 DREs). Format: cell-based.
Excerpt: as §1
Exposure of H4L7.5c2 rat cells to dioxins, dioxin-like compounds, and other AhR agonists results in induction of luciferase reporter gene expression in a time-, concentration-, AhR-, and chemical-specific manner. The AhR signal transduction pathway in the CALUX bioassay and the molecular mechanism of activation of gene expression by 2,3,7,8-TCDD and related AhR agonists have been described in detail elsewhere. The level of luciferase expression in CALUX cell lines is directly related to the overall concentration of added AhR activators.
H4L7.5c2 rat cells of defined sub-confluent density (60–70%) were harvested with trypsin and homogeneously suspended in cell culture medium (α-MEM) containing 10% (v/v) FBS. Cells were counted in a haemocytometer, then seeded in 96-well white clear bottom culture plates (Corning, New York, USA) at approximately 25,000 cells/well. After 1 h of pre-incubation at ambient conditions in a biosafety cabinet, the cells were grown for 20–24 h at 37 °C in the presence of 5% CO2.
Individual concentrations of a 2,3,7,8-TCDD-standard dilution series (generating assay concentrations of 0.0, 0.1, 0.3, 1.0, 3.0, 10, 30, 300, and 3000 pmol/L) and the sample extracts (both in DMSO) were first added to incubation medium and mixed, and the mixtures subsequently added in triplicate to 96-well plates containing H4L7.5c2 cells. The ability of the bioassay target compounds to adhere to the walls and bottom of the wells can lead to cells in individual wells of a triplicate being dosed with slightly different amounts of AhR-active compounds, leading to increased triplicate RSD values. Well-to-well variability of the cell response also further depends on edge effects commonly observed across 96-well microplates. For a given cell system, inhomogeneous dosing of triplicates and edge effects are some of the main drivers for the assay working range, within which triplicate RSD values are subject to defined limitations (RSD < 15%). Especially, its bottom end should be as low as possible for the present application. Each batch of plates was therefore pre-tested for satisfactorily low and reproducible edge effects. The latter was further reduced by a 1 h pre-incubation under ambient conditions in the safety cabinet immediately after seeding the cells, resulting in an even distribution of the cells in each well. The plates were then placed in an incubator on a 1.5 mm-thin copper sheet on top of the incubator shelf. Copper not only has bactericidal properties, but being a fast heat conductor, it also helps to avoid the formation of patterns in the measured cell response (another type of "edge effects"), caused by temperature gradients near heat-radiating walls or by occasional opening of the incubator door. For preparing the dose media, we applied a validated, fast, and reproducible pipetting procedure followed by thorough re-mixing immediately before dosing the cells only into the inner 60 wells of 96-well plates. Cell culture medium was added to the cells in the 36 outer wells to maintain a balanced atmosphere above all wells allowing homogeneous evaporation rates across the plate during incubation. […]

For data set [6] the target is unchanged. As to the kind of experiment: DR-CALUX luciferase reporter bioassay, recombinant rat hepatoma (H4IIe)-based cells (4 DREs). The format is cell-based. The note with it: DR-CALUX rat (4 DREs).
Excerpt: as §2, §3

In data set [7] the target is T1, aryl hydrocarbon receptor (AhR). As to the kind of experiment: CALUX luciferase reporter bioassay, H1L6.1c2 mouse hepatoma cells (4 DREs). The note with it: H1L6.1c2 mouse (4 DREs). Format: cell-based.
Excerpt: as §2, §3

The mark [8] stands for this setting: H4L7.5c2 rat (20 DREs), 5-PL fit by WSSR regression.

T1 sequence (P30561 10-848): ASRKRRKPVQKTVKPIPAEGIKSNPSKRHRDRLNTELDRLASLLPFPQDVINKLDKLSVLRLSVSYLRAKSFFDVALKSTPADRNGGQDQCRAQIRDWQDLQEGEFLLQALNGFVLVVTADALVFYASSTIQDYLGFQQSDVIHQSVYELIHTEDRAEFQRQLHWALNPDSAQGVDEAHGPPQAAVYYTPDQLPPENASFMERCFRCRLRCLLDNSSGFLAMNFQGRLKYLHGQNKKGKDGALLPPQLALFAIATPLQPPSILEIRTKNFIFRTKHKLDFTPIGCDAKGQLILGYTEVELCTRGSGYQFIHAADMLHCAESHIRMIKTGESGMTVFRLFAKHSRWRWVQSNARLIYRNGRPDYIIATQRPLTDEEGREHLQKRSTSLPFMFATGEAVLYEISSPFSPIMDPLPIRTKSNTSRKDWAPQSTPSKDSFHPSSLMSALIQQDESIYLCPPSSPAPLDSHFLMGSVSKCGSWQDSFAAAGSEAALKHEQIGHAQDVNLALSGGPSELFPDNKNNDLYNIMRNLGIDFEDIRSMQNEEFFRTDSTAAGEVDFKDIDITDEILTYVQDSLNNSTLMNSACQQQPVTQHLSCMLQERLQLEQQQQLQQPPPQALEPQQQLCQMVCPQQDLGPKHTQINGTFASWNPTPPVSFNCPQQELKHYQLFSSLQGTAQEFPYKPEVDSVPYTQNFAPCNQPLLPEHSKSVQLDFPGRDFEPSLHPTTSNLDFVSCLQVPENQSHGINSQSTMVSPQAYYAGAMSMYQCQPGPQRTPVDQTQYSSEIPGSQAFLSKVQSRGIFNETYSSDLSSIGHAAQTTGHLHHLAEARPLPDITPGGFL
T1 sequence (P53762 2-791 partner): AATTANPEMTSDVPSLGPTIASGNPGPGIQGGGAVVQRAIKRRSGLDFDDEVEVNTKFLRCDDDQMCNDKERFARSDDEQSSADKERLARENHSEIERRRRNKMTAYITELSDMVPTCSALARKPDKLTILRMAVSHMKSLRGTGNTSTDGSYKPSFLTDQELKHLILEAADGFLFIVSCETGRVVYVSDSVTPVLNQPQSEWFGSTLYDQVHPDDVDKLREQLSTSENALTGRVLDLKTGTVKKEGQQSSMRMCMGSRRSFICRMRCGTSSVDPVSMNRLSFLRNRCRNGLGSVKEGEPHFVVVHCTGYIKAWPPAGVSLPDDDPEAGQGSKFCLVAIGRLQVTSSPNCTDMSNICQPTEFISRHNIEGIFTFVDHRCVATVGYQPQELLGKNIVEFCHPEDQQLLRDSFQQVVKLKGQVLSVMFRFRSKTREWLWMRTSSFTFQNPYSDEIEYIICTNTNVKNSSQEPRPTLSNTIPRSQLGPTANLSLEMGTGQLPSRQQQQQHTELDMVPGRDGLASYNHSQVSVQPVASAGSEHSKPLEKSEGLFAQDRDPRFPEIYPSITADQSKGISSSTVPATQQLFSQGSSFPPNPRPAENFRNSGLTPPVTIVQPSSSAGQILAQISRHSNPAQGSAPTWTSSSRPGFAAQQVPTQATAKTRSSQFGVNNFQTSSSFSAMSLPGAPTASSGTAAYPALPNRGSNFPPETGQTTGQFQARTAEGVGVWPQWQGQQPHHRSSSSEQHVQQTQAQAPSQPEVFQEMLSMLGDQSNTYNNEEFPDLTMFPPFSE

For `Clc1ccc(-c2cc(Cl)c(Cl)c(Cl)c2)cc1Cl` [PCB 126], in data set [1], the “Relative potency (REP) or response of the cell bioassay compared to the response to 2,3,7,8-TCDD” value is “approximately 40%”.

What is called EC70 is the concentration needed for an effect of 70%. Broadly, the EC50 is the concentration at which the effect is half-maximal. As to `Clc1cc2c(cc1Cl)Oc1cc(Cl)c(Cl)cc1O2` [2,3,7,8-TCDD, 2,3,7,8-tetrachlorodibenzo-p-dioxin], the “Fold induction at 0.3 pmol/L” value in data set [2] (0.3 pmol/L) amounted to 1.10; in data set [3] (0.3 pmol/L), 1.33; in data set [5] (H4L7.5c2 rat (20 DREs), 0.3 pmol/L), 1.46; in data set [6] (0.3 pmol/L) it was 1.16; in data set [7] (0.3 pmol/L), 1.12. Besides, the “Fold induction at 1.0 pmol/L” value is given as 1.62 in data set [2] (1.0 pmol/L); 2.44 in data set [3] (1.0 pmol/L); 4.47 in data set [5] (H4L7.5c2 rat (20 DREs), 1.0 pmol/L); 1.53 in data set [6] (1.0 pmol/L); 1.56 in data set [7] (1.0 pmol/L). Further, the “Asymmetry factor (e)” value is on record as 1.15 in data set [2] (5-PL fit); 1.81 in data set [3] (5-PL fit); 1.51 in data set [5] (H4L7.5c2 rat (20 DREs), 5-PL fit); 0.63 in data set [6] (5-PL fit); 1.42 in data set [7] (5-PL fit). Also, the EC70 turned out to be 0.00921 nM in data set [2] (5-PL fit by WSSR regression); 0.0198 nM in data set [3] (5-PL fit by WSSR regression); 0.0223 nM in data set [5] (setting [8]); 0.014 nM in data set [6] (5-PL fit by WSSR regression); 0.0505 nM in data set [7] (5-PL fit by WSSR regression). In addition, the “Inflection point (c)” value in data set [2] (5-PL fit by WSSR regression) is listed as 4.63 pmol/L; in data set [3] (5-PL fit by WSSR regression), 3.67 pmol/L; in data set [5] (setting [8]), 7.22 pmol/L; in data set [6] (5-PL fit by WSSR regression) it was 12.0 pmol/L; in data set [7] (5-PL fit by WSSR regression), 15.0 pmol/L. The Maximum fold induction is on record as 10.5 in data set [2] (5-PL fit by WSSR regression); 20.6 in data set [3] (5-PL fit by WSSR regression); 136 in data set [5] (setting [8]); 8.75 in data set [6] (5-PL fit by WSSR regression); 31.2 in data set [7] (5-PL fit by WSSR regression). For the same molecule, the “Slope (b)” value in data set [2] (Hill coefficient of 5-PL fit) is 1.48; in data set [3] (Hill coefficient of 5-PL fit), 0.90; in data set [5] (H4L7.5c2 rat (20 DREs), Hill coefficient of 5-PL fit), 1.17; in data set [6] (Hill coefficient of 5-PL fit), 1.70; in data set [7] (Hill coefficient of 5-PL fit), 1.03. The concentration for a half-maximal effect (EC50) in data set [2] (H1L7.5c3 mouse hepatoma CALUX cells (20 DREs), 5-PL fit by WSSR regression) amounted to 0.00528 nM; in data set [3] (5-PL fit by WSSR regression), 0.00552 nM; in data set [5] (setting [8]), 0.0114 nM; in data set [6] (5-PL fit by WSSR regression), 0.00789 nM; in data set [7] (H1L6.1c2 mouse hepatoma CALUX cells (4 DREs), 5-PL fit by WSSR regression), 0.0235 nM. Further, the half-life in data set [4] was 3 to 10 years. In data set [5] (H4L7.5c2 rat hepatoma cells, corrected for the assay background response, 5-PL fit), this molecule displayed a Maximum response of 4730 RLUs.

These data come from publication PMC7973644, “Bioanalytical screening of low levels of dioxins and dioxin-like PCBs in pig meat (pork) for checking compliance with EU maximum and action levels using highly sensitive “third generation” recombinant H4L7.5c2 rat hepatoma cells” (Environmental Sciences Europe, 2021).
